According to patent publication US20090081197A1 (Palatin Technologies, Inc., priority 2007, published 2009):
Read-outs that look alike come from different tables or passages of the source. One block for each compound: values may come before it. Non-standard residues stand in square brackets, D forms with d. Residues, ends and D or L forms follow the SMILES beside them. *: point of attachment. dPhe(4-Cl) = N[C@H](Cc1ccc(Cl)cc1)C(=O)O; Ahp = NCCCCCCC(=O)O; Bn = c1ccc(C*)cc1

Tests used:
[1] = target: T1, MC1-R (Mus musculus, UniProt Q01727); assay: Competitive inhibition assay using [I^125]-NDP-α-MSH, B-16 mouse melanoma cell membranes; format: binding; conditions: for inhibition at 1 µM: 1 μM test compound, read-out: Inhibition at 1 μM (NDP-α-MSH) In Normal System, MC1-R; for Ki: read-out: Ki (nM) (NDP-α-MSH) In Normal System, MC1-R
T1 construct: B-16 mouse melanoma cells (containing MC1-R); endogenous in cells
T1 sequence (Q01727 whole entry): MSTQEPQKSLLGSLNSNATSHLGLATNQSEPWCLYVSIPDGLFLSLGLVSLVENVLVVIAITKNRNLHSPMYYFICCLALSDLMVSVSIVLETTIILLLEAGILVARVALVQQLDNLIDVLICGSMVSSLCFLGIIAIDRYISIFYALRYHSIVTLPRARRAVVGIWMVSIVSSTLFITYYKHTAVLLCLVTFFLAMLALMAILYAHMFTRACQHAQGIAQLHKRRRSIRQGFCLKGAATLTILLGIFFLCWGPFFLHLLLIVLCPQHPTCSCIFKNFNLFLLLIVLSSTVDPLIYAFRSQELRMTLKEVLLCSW
Outline: (§1)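 Tracer was 0.4 nM for MC3-R and MC5-R, 0.2 nM for MC4-R and 0.1 nM for MC1-R. Bound radioactivity was gamma-counted after filtration; values are triplicate means, with results below 0% reported as 0%.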

[2] = target: T2, MC4-R (Homo sapiens, UniProt P32245); assay: cAMP agonist stimulation, high receptor density system (10 ng/mL doxycycline); conditions: for Efficacy/Intrinsic Activity: NDP-α-MSH maximal cAMP = 1.0
T2 sequence (P32245 whole entry): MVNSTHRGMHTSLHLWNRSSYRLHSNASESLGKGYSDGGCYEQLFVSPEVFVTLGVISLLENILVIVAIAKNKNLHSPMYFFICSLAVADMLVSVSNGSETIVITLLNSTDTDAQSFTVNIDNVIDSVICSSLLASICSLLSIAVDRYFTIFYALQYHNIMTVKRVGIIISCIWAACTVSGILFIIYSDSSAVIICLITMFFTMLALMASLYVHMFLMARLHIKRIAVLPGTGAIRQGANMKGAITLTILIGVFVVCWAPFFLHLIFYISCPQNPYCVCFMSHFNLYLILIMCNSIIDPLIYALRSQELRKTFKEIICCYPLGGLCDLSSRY

[3] = target: MC3-R (Homo sapiens, UniProt P41968); assay: Competitive inhibition assay using [I^125]-NDP-α-MSH, hMC3-R membranes; format: binding; parameters: expressed in transfected cells; conditions: for inhibition at 1 µM: 1 μM test compound, read-out: Inhibition at 1 μM (NDP-α-MSH) In Normal System, MC3-R
Chain of MC3-R (P41968 whole entry): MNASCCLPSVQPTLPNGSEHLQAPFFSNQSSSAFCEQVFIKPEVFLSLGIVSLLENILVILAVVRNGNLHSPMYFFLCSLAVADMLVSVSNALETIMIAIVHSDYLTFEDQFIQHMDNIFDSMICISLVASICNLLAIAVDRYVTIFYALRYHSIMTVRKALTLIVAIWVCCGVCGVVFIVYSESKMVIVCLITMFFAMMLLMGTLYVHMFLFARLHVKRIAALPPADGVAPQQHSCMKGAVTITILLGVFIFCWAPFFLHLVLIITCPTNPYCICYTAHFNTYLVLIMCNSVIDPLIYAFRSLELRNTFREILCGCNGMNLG
Outline: as §1

[4] = target: T2, MC4-R; assay: cAMP agonist stimulation, low receptor density system (0.1 ng/mL doxycycline); conditions: 0.1 ng/mL doxycycline, low receptor density hMC4-R system; NDP-α-MSH maximal cAMP = 1.0
[5] = ICV food intake and body weight change; format: in vivo; conditions: rat, 1 nmol, 24 hours
Method: (§2) ICV food intake and body weight change. Change in food intake and body weight was evaluated for selected compounds. Rats with indwelling intracerebroventricular cannulas (ICV rats) were obtained from Hilltop Lab Animals, Inc. (Scottdale, Pa.). Animals were individually housed in conventional plexiglass hanging cages and maintained on a controlled 12 hour on/off light cycle. Water and powdered (LabDiet, 5P00 Prolab RMH 3000) or pelleted (Harlan Teklad 2018 18% Protein Rodent Diet) food was provided ad libitum. For 1 week before treatment, 24-hour food intake and body weight change was recorded to assess a baseline for the group during vehicle treatment. The rats were dosed ICV with vehicle or selected compounds (1-3 nmol). The changes in body weight and food intake for the 24 hour period after dosing were determined. The changes in body weight and food intake for the 48 hour and 72 hour periods after dosing were also measured to determine reversal of changes in body weight and food intake effects back to baseline levels.

[6] = target: T2, MC4-R; assay: cAMP functional activity assay in HEK-293 cells, normal system; format: cell-based; parameters: expressed in transfected cells; host or cells: HEK-293; conditions: for intrinsic activity at MC4-R in a normal system: normal receptor density system, NDP-α-MSH = 1.0; for functional status at MC4-R in cAMP assay: normal system, 1 μM concentration where stated
[7] = target: T3, MC5-R (Homo sapiens, UniProt P33032); assay: Competitive inhibition assay using [I^125]-NDP-α-MSH, hMC5-R membranes; format: binding; parameters: expressed in transfected cells; conditions: for inhibition at 1 µM: 1 μM test compound, read-out: Inhibition at 1 μM (NDP-α-MSH) In Normal System, MC5-R
T3 sequence (P33032 whole entry): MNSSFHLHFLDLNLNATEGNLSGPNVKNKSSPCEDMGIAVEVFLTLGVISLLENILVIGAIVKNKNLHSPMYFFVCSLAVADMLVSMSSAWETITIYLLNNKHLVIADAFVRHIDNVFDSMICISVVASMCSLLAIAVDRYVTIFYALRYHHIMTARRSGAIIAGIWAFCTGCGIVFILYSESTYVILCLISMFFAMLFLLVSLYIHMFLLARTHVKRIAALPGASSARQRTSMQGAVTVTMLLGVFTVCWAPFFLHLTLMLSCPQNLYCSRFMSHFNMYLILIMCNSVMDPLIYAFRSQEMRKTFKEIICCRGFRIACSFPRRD
Outline: as §1

[8] = Penile erection induction in male rats; format: in vivo; conditions: rat
Outline: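 Male Sprague-Dawley rats (200-250 g), groups of 4-8, dosed IV or ICV at various doses and observed individually for penile erections. Only statistically relevant increases over vehicle-control mean PEs count as induction; IV responses below 1.0 PEs/rat treated as equivocal, some retested ICV.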

[9] = target: T2, MC4-R; assay: Competitive inhibition assay using [I^125]-NDP-α-MSH, hMC4-R membranes; format: binding; parameters: host or cells: TREx-293 (HEK-293 stably expressing Tet repressor); conditions: for inhibition at 1 µM: 1 μM test compound, read-out: Inhibition at 1 μM (NDP-α-MSH) In Normal System, MC4-R; for Ki: read-out: Ki (nM) (NDP-α-MSH) In Normal System, MC4-R
Outline: as §1

[10] = IV and IP food intake and body weight change, rats; format: in vivo; conditions: rat, IV, dose not stated; for decrease in body weight: 24 hours
Method: as §2, with “IV and IP food” for “ICV food”, “compounds. Male Sprague-Dawley rats or male C57BL/6 mice” for “compounds. Rats with indwelling intracerebroventricular cannulas (ICV rats)”, “were utilized.” for “were obtained from Hilltop Lab Animals, Inc. (Scottdale, Pa.).”, “dosed IV” for “dosed ICV”, “compounds (0.5-3 mg/kg, and in some cases up to 10 mg/Kg) or dosed intraperitoneally (IP) with vehicle or selected compounds (0.5-10 mg/kg, and in some cases up to 50 mg/kg). Mice were dosed IP.” for “compounds (1-3 nmol).”, “to determined” for “to determine”

[11] = target: T1, MC1-R; assay: cAMP functional activity assay in B-16 mouse melanoma cells; format: cell-based; conditions: 1 μM concentration where stated
Method: (§3) General method for EC50 determination in functional activity assay. […] Data analysis and EC50 values were determined using nonlinear regression analysis with Prism Graph-Pad software.
(§4) Functional status. The agonist/antagonist status with respect to MC1-R, MC-3R, MC4-R and MC5-R of certain compounds of the invention was determined. Antagonistic activity was determined by measuring the inhibition of α-MSH-induced or NDP-α-MSH-induced cAMP levels following exposure to graded doses of compounds as in the preceding descriptions.

[12] = target: T3, MC5-R; assay: cAMP functional activity assay in HEK-293 cells; format: cell-based; parameters: expressed in transfected cells; host or cells: HEK-293; conditions: 1 μM concentration where stated
Method: as §3, §4

[13] = IP (and IN) food intake, mice; format: in vivo; conditions: mouse, 4 hours
Method: IV and IP food intake and body weight change. Change in food intake and body weight was evaluated for selected compounds. Male Sprague-Dawley rats or male C57BL/6 mice were utilized. Animals were individually housed in conventional plexiglass hanging cages and maintained on a controlled 12 hour on/off light cycle. Water and powdered (LabDiet, 5P00 Prolab RMH 3000) or pelleted (Harlan Teklad 2018 18% Protein Rodent Diet) food was provided ad libitum. For 1 week before treatment, 24-hour food intake and body weight change was recorded to assess a baseline for the group during vehicle treatment. The rats were dosed IV with vehicle or selected compounds (0.5-3 mg/kg, and in some cases up to 10 mg/Kg) or dosed intraperitoneally (IP) with vehicle or selected compounds (0.5-10 mg/kg, and in some cases up to 50 mg/kg). Mice were dosed IP. […] The changes in body weight and food intake for the 48 hour and 72 hour periods after dosing were also measured to determined reversal of changes in body weight and food intake effects back to baseline levels.

[14] = 10 ng/mL doxycycline, high receptor density hMC4-R system

Compound: N=C(N)NCCC[C@H](NC(=O)[C@@H](Cc1ccc(Cl)cc1)NC(=O)[C@H](COCc1ccccc1)NC(=O)CCCCCCN)C(=O)N[C@@H](Cc1c[nH]c2ccccc12)C(=O)N[C@@H](CC(=O)O)C(=O)N[C@@H](Cc1ccccc1)C(N)=O [Example 14, NH2—(CH2)6—C(═O)-Ser(Bzl)-D-Phe(4-Cl)-Arg-Trp-Asp-Phe-NH2] (H-[Ahp]S(Bn)[dPhe(4-Cl)]RWDF-NH2)
inhibition at 1 µM [1]: 38%
EC50 [2]: 141 nM
Efficacy/Intrinsic Activity [2, 14]: 0.64
inhibition at 1 µM [3]: 66%
Efficacy/Intrinsic Activity [4]: None
decrease in body weight [5]: −2%
decrease in food intake [5]: 50%
intrinsic activity at MC4-R in a normal system [6]: 0.5
functional status at MC4-R in cAMP assay [6]: partial agonist (intrinsic activity between 0.1 (10%) and 0.7 (70%) is classified as a partial agonist)
inhibition at 1 µM [7]: 52%
Penile Erection IV ([8]; IV): No
penile erection response ([8]; IV): no penile erection response
inhibition at 1 µM [9]: 99%
24 hour decrease in food intake [10]: 30%
decrease in body weight [10]: 2%

Ki [1]: 109 nM
EC50 [2, 14]: 61 nM
Efficacy/Intrinsic Activity [2, 14]: 0.26
Ki ([3]; read-out: Ki (nM) (NDP-α-MSH) In Normal System, MC3-R): 186 nM
Efficacy/Intrinsic Activity [4]: None
Ki ([7]; read-out: Ki (nM) (NDP-α-MSH) In Normal System, MC5-R): 204 nM
Ki [9]: 6 nM
Compound: N-{3-[1-[2(R)-Amino-3-(4-chloro-2-fluoro-phenyl)-propionyl]-5(S)-methyl-4-(2-naphthalen-2-yl-ethyl)-piperazin-2(S)-yl]-propyl}-guanidine [Example 3]
functional status at MC1-R in cAMP assay [11]: partial agonist (intrinsic activity between 0.1 (10%) and 0.7 (70%) is classified as a partial agonist)
functional status at MC4-R in cAMP assay [6]: no intrinsic activity (intrinsic activity below 0.1 (10%) is classified as inactive or having no intrinsic activity)
functional status at MC5-R in cAMP assay [12]: no intrinsic activity (intrinsic activity below 0.1 (10%) is classified as inactive or having no intrinsic activity)

Compound: C[C@H](NC(=O)[C@H](Cc1c[nH]c2ccccc12)NC(=O)[C@H](CCCNC(=N)N)NC(=O)[C@@H](Cc1ccc(Cl)cc1)NC(=O)[C@H](COCc1ccccc1)NC(=O)CCCCCCN)C(N)=O [Example 15, NH2—(CH2)6—C(═O)-Ser(Bzl)-D-Phe(4-Cl)-Arg-Trp-Ala-NH2] (H-[Ahp]S(Bn)[dPhe(4-Cl)]RWA-NH2)
inhibition at 1 µM [1]: 60%
EC50 [2]: 55 nM
Efficacy/Intrinsic Activity [2, 14]: 0.67
inhibition at 1 µM [3]: 93%
Efficacy/Intrinsic Activity [4]: None
decrease in body weight [5]: 2%
decrease in food intake [5]: 14%
intrinsic activity at MC4-R in a normal system [6]: less than 0.1
functional status at MC4-R in cAMP assay [6]: functionally inactive
inhibition at 1 µM [7]: 79%
Penile Erection IV ([8]; IV): No
penile erection response ([8]; IV): no penile erection response
inhibition at 1 µM [9]: 100%
24 hour decrease in food intake [10]: 4%

Compound: N=C(N)NCCC[C@H]1C(=O)N2C(CC[C@@H]2COc2ccc3ccccc3c2)N1C(=O)[C@@H](Cc1ccc(Cl)cc1Cl)NC(=O)[C@@H]1CC[C@H](c2ccccc2)N1 (stereo partly drawn) [Example 19, (2S,5R)-5-Phenyl-pyrrolidine-2-carboxylic acid {(R)-1-(2,4-dichloro-benzyl)-2-[(2S,5R)-2-(3-guanidino-propyl)-5-(naphthalen-2-yloxymethyl)-3-oxo-hexahydro-pyrrolo[1,2-a]imidazol-1-yl]-2-oxo-ethyl}-amide]
inhibition at 1 µM [1]: 16%
Ki [1]: 1040 nM
EC50 [2]: 173 nM
Efficacy/Intrinsic Activity [2, 14]: 0.22
inhibition at 1 µM [3]: 43%
Efficacy/Intrinsic Activity [4]: None
decrease in body weight [5]: 3%
decrease in food intake [5]: 38%
functional status at MC4-R in cAMP assay [6]: no intrinsic activity (intrinsic activity below 0.1 (10%) is classified as inactive or having no intrinsic activity)
inhibition at 1 µM [7]: 86%
Penile Erection IV ([8]; IV): No
penile erection response ([8]; IV, 1 μg/kg): no penile erection response
inhibition at 1 µM [9]: 97%
24 hour decrease in food intake [10]: 1%
decrease in body weight [10]: 2%

Compound: N=C(N)NCCC[C@H](NC(=O)[C@@H](Cc1ccc(Cl)cc1)NC(=O)[C@H](COCc1ccccc1)NC(=O)CCCCCCN)C(=O)N[C@@H](Cc1c[nH]c2ccccc12)C(N)=O [Example 1, NH2—(CH2)6—C(═O)-Ser(Bzl)-(D)Phe(4-Cl)-Arg-Trp-NH2] (H-[Ahp]S(Bn)[dPhe(4-Cl)]RW-NH2)
inhibition at 1 µM [1]: 33%
EC50 [2]: 21 nM
Efficacy/Intrinsic Activity [2, 14]: 0.97
maximal decrease in food intake ([13]; IN, 10 μg/kg): 16%
maximal decrease in food intake ([13]; IP, 3 mg/kg): 26%
inhibition at 1 µM [3]: 94%
Efficacy/Intrinsic Activity [4]: None
decrease in food intake [5]: 21%
intrinsic activity at MC4-R in a normal system [6]: 0.32
functional status at MC4-R in cAMP assay [6]: partial agonist (intrinsic activity between 0.1 (10%) and 0.7 (70%) is classified as a partial agonist)
inhibition at 1 µM [7]: 73%
Penile Erection ICV ([8]; ICV): No
penile erection response ([8]; ICV, 0.01 to 5 nmol): no penile erection response
inhibition at 1 µM [9]: 99%
Ki [9]: 3 nM
